{"source": "patent US20180030500A1", "about": "“ENRICHMENT AND SELECTIVE CULTURE OF MYCOBACTERIA” (priority 2015, published 2018)", "key": {"[1]": {"test_system": "Mycobacteria", "conditions": "20 strains, 7 days"}, "[2]": {"test_system": "Burkholderia multivorans (LMG 18822)", "assay": "Sensitivity to C-390 in medium W", "format": "cell-based", "parameters": "key: NG: no growth; Tr: traces", "description": "(§1) An evaluation of the sensitivity to C-390 of various microorganisms capable of infecting the airways was carried out. This evaluation was carried out using medium W of example 4, containing a variable concentration of C-390. Table 10 below collates the observations collected with regard to the intensity of growth of the strains tested as a function of the C-390 concentration of the medium. The abbreviations NG (“no growth”) and Tr (“traces”) signify that no growth was observed or only a few not very significant traces."}, "[3]": {"test_system": "Burkholderia ambifaria (LMG 19467)", "assay": "Sensitivity to C-390 in medium W", "format": "cell-based", "parameters": "key: NG: no growth; Tr: traces", "description": "as §1"}, "[4]": {"test_system": "Burkholderia stabilis (716237)", "assay": "Sensitivity to C-390 in medium W", "format": "cell-based", "parameters": "key: NG: no growth; Tr: traces", "description": "as §1"}, "[5]": {"test_system": "Scedosporium prolificans (Anon)", "assay": "Sensitivity to C-390 in medium W", "format": "cell-based", "parameters": "key: NG: no growth; Tr: traces", "description": "as §1"}, "[6]": {"test_system": "Geosmithia argillacea (Anon)", "assay": "Sensitivity to C-390 in medium W", "format": "cell-based", "parameters": "key: NG: no growth; Tr: traces", "description": "as §1"}, "[7]": {"test_system": "Burkholderia stabilis (LMG18870)", "assay": "Sensitivity to C-390 in medium W", "format": "cell-based", "parameters": "key: NG: no growth; Tr: traces", "description": "as §1"}, "[8]": {"test_system": "Burkholderia cenocepacia (LMG 18832)", "assay": "Sensitivity to C-390 in medium W", "format": "cell-based", "parameters": "key: NG: no growth; Tr: traces", "description": "as §1"}, "[9]": {"test_system": "Burkholderia contaminans (40007X)", "assay": "Sensitivity to C-390 in medium W", "format": "cell-based", "parameters": "key: NG: no growth; Tr: traces", "description": "as §1"}, "[10]": {"test_system": "Fusarium oxysporum (ENV)", "assay": "Sensitivity to C-390 in medium W", "format": "cell-based", "parameters": "key: NG: no growth; Tr: traces", "description": "as §1"}, "[11]": {"test_system": "Scedosporium apiospermum (Anon)", "assay": "Sensitivity to C-390 in medium W", "format": "cell-based", "parameters": "key: NG: no growth; Tr: traces", "description": "as §1"}, "[12]": {"test_system": "Burkholderia cenocepacia (640328)", "assay": "Sensitivity to C-390 in medium W", "format": "cell-based", "parameters": "key: NG: no growth; Tr: traces", "description": "as §1"}, "[13]": {"conditions": "selective agent 32 mg/l in medium L"}, "[14]": {"conditions": "selective agent 64 mg/l in medium L"}, "[15]": {"conditions": "selective agent 128 mg/l in medium L"}}, "note": "Like-named read-outs stand apart in the source and are kept apart here."}
{"smiles": "CCN(CC)c1ccc(C2(Cl)c3ccccc3N(c3ccccc3)c3ccccc32)cc1", "note": "[Medium C-390, 9-chloro-9-(4′-diethylamino)phenyl-9,10-dihydro-10-phenylacridine]", "values": [{"measurement": "Number of strains having shown growth", "setting": "[1]; [13]", "result": 19}, {"measurement": "Percentage of strains having shown growth", "setting": "[1]; [13]", "result": "(95%)"}, {"measurement": "Number of strains having shown growth", "setting": "[1]; [14]", "result": 19}, {"measurement": "Percentage of strains having shown growth", "setting": "[1]; [14]", "result": "(95%)"}, {"measurement": "Number of strains having shown growth", "setting": "[1]; [15]", "result": 19}, {"measurement": "Percentage of strains having shown growth", "setting": "[1]; [15]", "result": "(95%)"}, {"measurement": "intensity of growth", "setting": "[2]; C-390 4 mg/l in medium W", "result": "NG"}, {"measurement": "intensity of growth", "setting": "[2]; C-390 8 mg/l in medium W", "result": "NG"}, {"measurement": "intensity of growth", "setting": "[2]; C-390 16 mg/l in medium W", "result": "NG"}, {"measurement": "intensity of growth", "setting": "[2]; C-390 32 mg/l in medium W", "result": "NG"}, {"measurement": "intensity of growth", "setting": "[3]; C-390 0.5 mg/l in medium W", "result": "NG"}, {"measurement": "intensity of growth", "setting": "[3]; C-390 1 mg/l in medium W", "result": "NG"}, {"measurement": "intensity of growth", "setting": "[3]; C-390 2 mg/l in medium W", "result": "NG"}, {"measurement": "intensity of growth", "setting": "[3]; C-390 4 mg/l in medium W", "result": "NG"}, {"measurement": "intensity of growth", "setting": "[3]; C-390 8 mg/l in medium W", "result": "NG"}, {"measurement": "intensity of growth", "setting": "[3]; C-390 16 mg/l in medium W", "result": "NG"}, {"measurement": "intensity of growth", "setting": "[3]; C-390 32 mg/l in medium W", "result": "NG"}, {"measurement": "intensity of growth", "setting": "[4]; C-390 4 mg/l in medium W", "result": "Tr"}, {"measurement": "intensity of growth", "setting": "[4]; C-390 8 mg/l in medium W", "result": "Tr"}, {"measurement": "intensity of growth", "setting": "[4]; C-390 16 mg/l in medium W", "result": "NG"}, {"measurement": "intensity of growth", "setting": "[4]; C-390 32 mg/l in medium W", "result": "NG"}, {"measurement": "intensity of growth", "setting": "[5]; C-390 0.5 mg/l in medium W", "result": "NG"}, {"measurement": "intensity of growth", "setting": "[5]; C-390 1 mg/l in medium W", "result": "NG"}, {"measurement": "intensity of growth", "setting": "[5]; C-390 2 mg/l in medium W", "result": "NG"}, {"measurement": "intensity of growth", "setting": "[5]; C-390 4 mg/l in medium W", "result": "NG"}, {"measurement": "intensity of growth", "setting": "[5]; C-390 8 mg/l in medium W", "result": "NG"}, {"measurement": "intensity of growth", "setting": "[5]; C-390 16 mg/l in medium W", "result": "NG"}, {"measurement": "intensity of growth", "setting": "[5]; C-390 32 mg/l in medium W", "result": "NG"}, {"measurement": "intensity of growth", "setting": "[6]; C-390 0.5 mg/l in medium W", "result": "NG"}, {"measurement": "intensity of growth", "setting": "[6]; C-390 1 mg/l in medium W", "result": "NG"}, {"measurement": "intensity of growth", "setting": "[6]; C-390 2 mg/l in medium W", "result": "NG"}, {"measurement": "intensity of growth", "setting": "[6]; C-390 4 mg/l in medium W", "result": "NG"}, {"measurement": "intensity of growth", "setting": "[6]; C-390 8 mg/l in medium W", "result": "NG"}, {"measurement": "intensity of growth", "setting": "[6]; C-390 16 mg/l in medium W", "result": "NG"}, {"measurement": "intensity of growth", "setting": "[6]; C-390 32 mg/l in medium W", "result": "NG"}, {"measurement": "intensity of growth", "setting": "[7]; C-390 2 mg/l in medium W", "result": "NG"}, {"measurement": "intensity of growth", "setting": "[7]; C-390 4 mg/l in medium W", "result": "NG"}, {"measurement": "intensity of growth", "setting": "[7]; C-390 8 mg/l in medium W", "result": "NG"}, {"measurement": "intensity of growth", "setting": "[7]; C-390 16 mg/l in medium W", "result": "NG"}, {"measurement": "intensity of growth", "setting": "[7]; C-390 32 mg/l in medium W", "result": "NG"}, {"measurement": "intensity of growth", "setting": "[8]; C-390 8 mg/l in medium W", "result": "NG"}, {"measurement": "intensity of growth", "setting": "[8]; C-390 16 mg/l in medium W", "result": "NG"}, {"measurement": "intensity of growth", "setting": "[8]; C-390 32 mg/l in medium W", "result": "NG"}, {"measurement": "intensity of growth", "setting": "[9]; C-390 2 mg/l in medium W", "result": "Tr"}, {"measurement": "intensity of growth", "setting": "[9]; C-390 4 mg/l in medium W", "result": "NG"}, {"measurement": "intensity of growth", "setting": "[9]; C-390 8 mg/l in medium W", "result": "NG"}, {"measurement": "intensity of growth", "setting": "[9]; C-390 16 mg/l in medium W", "result": "NG"}, {"measurement": "intensity of growth", "setting": "[9]; C-390 32 mg/l in medium W", "result": "NG"}, {"measurement": "intensity of growth", "setting": "[10]; C-390 8 mg/l in medium W", "result": "NG"}, {"measurement": "intensity of growth", "setting": "[10]; C-390 16 mg/l in medium W", "result": "NG"}, {"measurement": "intensity of growth", "setting": "[10]; C-390 32 mg/l in medium W", "result": "NG"}, {"measurement": "intensity of growth", "setting": "[11]; C-390 2 mg/l in medium W", "result": "NG"}, {"measurement": "intensity of growth", "setting": "[11]; C-390 4 mg/l in medium W", "result": "NG"}, {"measurement": "intensity of growth", "setting": "[11]; C-390 8 mg/l in medium W", "result": "NG"}, {"measurement": "intensity of growth", "setting": "[11]; C-390 16 mg/l in medium W", "result": "NG"}, {"measurement": "intensity of growth", "setting": "[11]; C-390 32 mg/l in medium W", "result": "NG"}, {"measurement": "intensity of growth", "setting": "[12]; C-390 16 mg/l in medium W", "result": "NG"}, {"measurement": "intensity of growth", "setting": "[12]; C-390 32 mg/l in medium W", "result": "NG"}]}
